Measurements: patent US5190919A, “Antihemostatic Factor VII peptides” (Board of Regents, The University of Texas System, priority 1989, dated 1993)
Like-named read-outs stand apart in the source and are kept apart here. One block for each substance: values may come before it. Ends that are not written are not given here.

Columns and labels:
[1] = molecular target: T1, Factor VII-tissue factor complex (Homo sapiens, UniProt P08709+P13726); assay: Rate of Factor X activation, two-stage chromogenic (amidolytic) assay with purified proteins; type: biochemical; settings: for IC50: derivatives of peptide 194-214 (FIG. 4), read-out: Apparent CI50, rate of Factor Xa formation
T1 construct: Factor VII/VIIa (6), Factor X (7), and Factor Xa (8) were isolated as previously reported; Tissue factor was prepared from human brain as described (9); from tissue; host or cells: Tissue factor from human brain (gift of Dr. J. H. Morrissey)
Procedure: (§1) 3. Rate of Factor X activation: The effect of the synthetic peptides on the rate of activation of Factor X was analyzed in a purified system employing chromogenic assays. For the inhibition experiments, peptides were diluted in 20 mM Tris-HCl, 150 mM NaCl, pH 7.4 (TBS) and preincubated with 10 microliters each of Factor X (180 nM) and tissue factor (0.075%) at 37 degrees Centigrade in a total volume of 140 microliters adjusted with TBS containing 1% bovine serum albumin (BSA) and 5 mM CaCl2. After 30 minutes, Factor X activation was initiated by the addition of 10 microliters of Factor VII (2 pM). At defined timed intervals, 20 microliter aliquots were removed and added to a microtiter plate containing 80 microliters of 50 mM Tris-HCl, 225 mM NaCl and 10 mM EDTA, pH 8.2. Following sample collection, 50 microliters of 0.6 mM chromogenic substrate was added and the rate of change in the absorbance at 405 nm was monitored for 10 minutes using a Vmax Kinetic Microplate Reader (Molecular Devices, Inc., Palo Alto, Calif.). The rate of Factor Xa formation was calculated from the slope of linear regression of data plotted as a function of the initial rate of hydrolysis (OD405 /min) versus time and expressed as OD405 /min^2.
(§2) 5. Inhibition assays: The inhibition of Factor VII function was determined in the two-stage chromogenic assay described in Example I-A, 3. The peptides were initially screened at 200 μM added concentration. To determine the concentration of peptide required to inhibit the rate of Factor X activation by 50% (CI50), peptides at various concentrations or buffer (TBS-BSA) were incubated with their respective complexes. Following the addition of Factor VII, the rate of Factor Xa generation was determined and the percent of Factor X activation in the presence of different concentrations of Factor VII peptides relative to buffer controls was calculated. Analogous determinations of the CI50 values were measured in the specific coagulation assay outlined above. Factor VII activity in the presence of varying concentrations of peptide was measured by comparing the clotting times to a standard curve constructed from the log of the clot time versus the log of Factor VII concentration in the same incubation mixtures described for the peptides.
(§3) Kinetic analysis of multiple inhibitors known to be noncompetitive in nature was conducted holding the concentration of the first inhibitory peptide constant and varying the concentration of a second inhibitory peptide. The analysis for mutual exclusivity of the inhibitory peptides employed the methods adapted from Segel (12). […] Regression lines which intersect with one another indicate mutual non-exclusivity of one peptide to another, i.e. tested peptides act as regions which are spatially separate from one another.
(§4) Factor VII function results from a two-step mechanism. First, Factor VII must associate with tissue factor in order to form the active macromolecular complex and second, Factor VII activity within the macromolecular complex can be measured by the conversion of substrate to product, e.g. activation of Factor X. The peptides of the present invention were tested for their ability to inhibit Factor X activation by employing the two-stage chromogenic assay described in Example I-A, 3. Inhibition of Factor X activation measured by this assay detects both of the steps stated for Factor VII function. To verify the inhibitory effect of the synthetic peptides, each of the components were titrated. […] Factor X was titrated against the preformed Factor VII-tissue factor complex in the presence of at least 10^4 molar excess of each peptide. Selected peptides were inoubated with tissue factor and Factor X for 30 minutes at […] before the addition of Factor VII. This preincubation time was sufficient for the peptides to reach equilibrium with the target protein (13). […]

Factor VII = molecular target: T2, Factor VII (Homo sapiens, UniProt P08709); assay: Two-stage clotting assay specific for Factor VII function in Factor VII-depleted plasma; type: biochemical; settings: for IC50: Table 2, Factor VII-depleted plasma, tissue factor, read-out: Concentration for 50% Inhibition, VIIa Coagulant Activity
T2 construct: Factor VII/VIIa (6), Factor X (7), and Factor Xa (8) were isolated as previously reported
T2 sequence (P08709 61-466): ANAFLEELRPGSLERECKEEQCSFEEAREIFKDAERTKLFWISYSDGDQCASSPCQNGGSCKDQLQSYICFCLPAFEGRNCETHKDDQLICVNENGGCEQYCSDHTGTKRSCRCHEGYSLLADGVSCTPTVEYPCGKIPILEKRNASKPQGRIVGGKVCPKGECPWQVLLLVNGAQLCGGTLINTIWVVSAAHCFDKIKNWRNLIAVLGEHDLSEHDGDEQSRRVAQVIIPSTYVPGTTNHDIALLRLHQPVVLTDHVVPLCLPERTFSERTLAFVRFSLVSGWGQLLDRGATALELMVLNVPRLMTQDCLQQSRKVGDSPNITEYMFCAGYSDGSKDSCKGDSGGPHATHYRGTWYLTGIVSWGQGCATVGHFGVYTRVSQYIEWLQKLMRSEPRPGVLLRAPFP
Procedure: 4. Coagulation assays: The effect of the synthetic peptides and antibodies to them on Factor VII coagulation activity was determined using two-stage clotting assays specific for Factor VII function.
Synthetic peptides were individually preincubated with 20 μl each of plasma immunochemically depleted of Factor VII and 0.25% tissue factor at 37 degrees Centigrade in a total volume of 190 μl adjusted with TBS containing 1% BSA and 5 mM CaCl2. At the end of 30 minutes, coagulation was initiated by the addition of 10 μl of Factor VII (1 nM). The time for clot formation was measured using a Fibrometer (BBL, Cockesysville, Md.). Factor VII activity in the presence of varying concentrations of peptide was quantitated by comparing their clotting times to a standard curve constructed from the log of the clot time versus the log of a known amount of Factor VII in the same reaction mixture without added peptide.
as §2, with “To determine the concentration of peptide required to inhibit the rate of Factor X activation by 50% (CI50), peptides at various concentrations or buffer (TBS-BSA) were incubated with their respective complexes.” left out
Based on the results of the chromogenic assays, three peptides, 208-229, 285-305 and 276-390, were selected for further study for their ability to inhibit a coagulation-based assay designed to measure Factor VII activity. […] After Factor VII was added, the time of clot formation was determined and quantitated.

[2] = tested on: Factor VII-tissue factor complex; assay: Rate of Factor X activation, two-stage chromogenic (amidolytic) assay with purified proteins; type: biochemical, human; settings: for Factor Xa Formation (% of Control Rate): 200 μM of each synthetic peptide, amidolytic assay, purified proteins; for Dose-dependent inhibition of the rate of Factor Xa formation / Factor VII activity: result in words
Procedure: as §1, §2, §3, §4

[3] = Table 4, derivatives of inhibitory peptides, read-out: CI50, concentration of peptide inhibiting the rate of Factor Xa activation by 50%

T1 sequence (P13726 33-295, one chain of several): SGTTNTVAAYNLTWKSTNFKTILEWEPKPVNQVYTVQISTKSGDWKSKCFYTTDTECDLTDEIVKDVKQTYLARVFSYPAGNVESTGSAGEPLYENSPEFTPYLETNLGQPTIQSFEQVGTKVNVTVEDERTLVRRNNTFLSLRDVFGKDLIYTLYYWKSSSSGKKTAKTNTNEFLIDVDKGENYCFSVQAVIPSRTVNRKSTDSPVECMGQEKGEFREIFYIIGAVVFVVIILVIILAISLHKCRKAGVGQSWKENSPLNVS

Substance: RNLIAVLGEHDLSE [Peptide 202-214, RNLIAVLGEHDLSE]
- IC50 [2, 3]: 205 µM

Substance: CFDKIKNWRNLIAVLGEHDLS-NH2 [Peptide 194-214]
- IC50 [1]: ~70 µM

Substance: PRLMTQDCLQQSRKVGDSPNITEYMFC [Peptide 303-329]
- Factor Xa Formation (% of Control Rate) [2]: 92 % of Control Rate

Substance: AVLGEHDLSEHDG [Peptide 206-218, AVLGEHDLSEHDG]
- IC50 [1]: ~50 µM

Substance: GKVCPKGEC [Peptide 156-164]
- Factor Xa Formation (% of Control Rate) [2]: 97 % of Control Rate

Substance: 193-203: Factor VII region II synthetic peptide used in mixed inhibition; possibly the 196-203 of Table 4 (YPCGKIPILEK; UniProt P08709 193-203, looked up, fragment) [Peptide 193-203]
- Mixed inhibition, mutual exclusivity of peptides 209-221 and 193-203 ([1]; Dixon plots, 193-203 at 0, 14, 28 μM (FIG. 6A), parallel regression lines): mutually exclusive

Substance: R-T-K-L-F-W-I-S-Y-S-D-G-D-Q-C (RTKLFWISYSDGDQC) [Peptide 36-50]
- Dose-dependent inhibition of the rate of Factor Xa formation / Factor VII activity [2]: significantly inhibit the rate of Factor Xa formation in a dose-dependent manner

Continued, in another order:

- IC50 [1]: ~50 µM
- IC50 (Factor VII): 225 µM
Substance: LGEHDLSEHDGDEQSRRVAQVIGC-NH2 [Peptide 208-229]

- IC50 ([2]; Table 2, read-out: Concentration for 50% Inhibition, Rate of Factor Xa Formation): 3 µM
- IC50 [2, 3]: 3 µM
- Ki ([2]; from Dixon plots of the rate of Factor Xa formation, three Factor X concentrations, read-out: Ki, peptide inhibition constants for Factor VII activity): 2.8 ± 0.4 µM
Substance: GQLLDRGATALELMVLNVPRLGC-NH2 [Peptide 285-305]
- Reduction of the rate and extent of Factor X activation ([2]; 9.5 μM peptide, varying Factor X concentration (FIG. 1)): about 50%
- Factor Xa Formation (% of Control Rate) [2]: 0 % of Control Rate
- Inhibition of the rate of Factor Xa formation relative to control reactions ([2]; 200 μM peptide): completely inhibited
- Mixed inhibition, mutual exclusivity of peptides 209-221 and 285-305 ([2]; Dixon plots, 285-305 at 0, 1.5, 3.0 μM (FIG. 6B), lines intersect above abscissa): lack of mutual exclusively
- Concentration for 50% inhibition, fold less than that for peptide 44-50, 194-214, 208-229 or 376-390 ([2]; FIG. 2): 15 to 20 fold
- Concentration for 50% inhibition, fold less than that seen with peptides 170-178 and 330-340 ([2]; FIG. 2): 75 to 100 fold
- Dose-dependent inhibition of the rate of Factor Xa formation / Factor VII activity [2]: significantly inhibit the rate of Factor Xa formation in a dose-dependent manner
- Inhibition of clot formation (Factor VII; varying peptide concentrations (FIG. 7)): inhibited clot formation in a dose-dependent manner

- IC50 (Factor VII): 172 µM
Substance: VYTRVSQYIEWLQKL-NH2 [Peptide 376-390, VYTRVSQYIEWLQKL]

- IC50 [1]: ~70 µM
Substance: GEHDLSEHDGDEQ [Peptide 209-221, GEHDLSEHDGDEQ]
